Assays:
HeLa cancer cells = test: Fluorescence of stained cells in eppendorf under LED, recorded by camera; format: cell-based; conditions: Cancer cells (H) HeLa
Description: (§1) Human lung CL1-0 cancer cells or MRC-5 normal cells were incubated with 0.5 μM of Compound 2 and acridine orange (AO). After incubation in standard culture medium for 1 hour, the non-fixed cells were removed by washing the culture three times with phosphate buffered saline (PBS). The fixed cells were collected in an eppendorf by trypsinization. The eppendorf was centrifuged and then illuminated by an light emitting diode (LED) emitting excitation light with a center wavelength at 470 nm. A conventional digital camera was used to record the fluorescence. Table 1 summarizes the numbers of cells required to distinguish cancer cells from normal cells based on fluorescence emission of Compound 2 and AO recorded by a camera under different experimental conditions. Specifically, Compound 2 and AO were incubated with four different cells in eppendorf, i.e., MRC-5 normal cells, primary fibroblast, CL1-0 cancer cells, and HeLa cancer cells.

primary fibroblast = test: as above; format: cell-based; conditions: Normal cells (F) primary fibroblast
Description: as §1

Hum24 = test: Pre-stained gel electrophoresis selectivity and sensitivity assay; format: binding, human
Description: (§2) Pre-stained gels were used for selectivity assays. A 0.1 μM compound 2 solution was initially incubated with 10 μM of different DNA solutions for 10 minutes. Gel electrophoresis was then carried out in an electric field of 100 V/cm at 4° C. for 6 hours. All of the pre-stained gels were photographed under 254 nm UV light using a Bio-Rad imaging detector.
(§3) Gels pre-stained with compound 2 were used before running electrophoresis for AT, LD, GC, G10, LQ1, LQ2, LQ4, Tet12, Oxy12, Hum12, Apt, Oxy28, and Hum24. […] This third band is ascribed to be a linear tetramer of Tet12.
(§4) To study the sensitivity of DNA detection using electrophoresis described above, a solution containing 0.1 μM of compound 2 was incubated with solutions containing 2.5 to 0.005 μM of Hum24. The mixtures were then subjected to electrophoresis.

[1] = Absorption analysis of the free compound; format: physicochemical; conditions: compound alone, before adding DNA
Description: Each oligonucleotide described above was mixed with a solution of 10 mM Tris-HCl (pH 7.5) and 150 mM NaCl and was denatured at 90° C. for 2 min. The mixture was then cooled slowly to room temperature and stored at 4° C. for more than 2 days before use. A test compound was then added to this solution to form a compound/DNA complex. The resultant complex was subjected to absorption analysis using a Hitachi U3200 UV-visible spectrophotometer.
The absorption spectra were taken for compound 2 and its complex with each oligonucleotide. […] In addition, the molar absorption coefficient decreased by ˜15% in the presence of a DNA duplex and ˜35% in the presence of a DNA quadruplex. 10 These spectra changes indicate that compound 2 binds to duplexes and quadruplexes.

DNA quadruplexes = test: CD analysis of DNA quadruplexes and their complexes; format: binding; conditions: eight DNA quadruplexes
Source text: Eight DNA quadruplexes and their complexes with compound 2 were subjected to CD analysis. CD spectra were averaged 10 scans on a Jasco J-715 spectropolarimeter with a 2 nm bandwidth. The scan speed was 50 nm/min and the step resolution was 0.2 nm.

[2] = tested on: mixture of NIH3T3 normal cells and CL1-0 cancer cells with cell ratio of 10:1; test: Stained cells spread onto cover slip, fluorescent cells counted; format: cell-based; conditions: 1.5 μM Compound 2, 5 minutes, LED
Description: (§5) Further, the role of the ratio of the cells stained by Compound 2/AO in cancer diagnosis was studied. Specifically, CL1-0 cancer cells, NIH3T3 normal cells, and their 1:10 mixture were respectively stained with 0.02 μM AO and 1.5 μM Compound 2 for 5 minutes in eppendorfs. Each sample was then taken from the eppendorf and spread onto a cover slip. Fluorescence emissions were recorded by a color camera upon an LED illumination. […] A statistical histogram of the ratio of the cell stained with Compound 2/AO to the ratio of the CL1-0 cells to the sum of NIH3T3 and CL1-0 cells was plotted. Each spot on the histogram represented an average of 5-10 measurements from a single sample.

CL1-0 cancer cells [3] = test: as above; format: cell-based
Description: as §5

NIH3T3 normal cells [4] = test: as above; format: cell-based; conditions: 1.5 μM Compound 2, 5 minutes, LED
Description: as §5

Tet12 = test: Pre-stained gel electrophoresis selectivity and sensitivity assay; format: binding
Description: as §2, §3, §4

Oxy28 = test: as above; format: binding
Description: as §2, §3, §4

LQ4 = test: as above; format: binding
Description: as §2, §3, §4

NIH3T3 normal cells [5] = test: Cancer cell diagnosis in a tube; format: cell-based; conditions: NIH3T3 normal cells alone
Source text: (§6) NIH3T3 normal cells and a mixture of NIH3T3 normal cells and CL1-0 cancer cells with a cell ratio of 100:1 were respectively stained with Compound 2 and allowed to flow through a tube. The fluorescence emission upon excitation was monitored. […] In other words, this method can be used for early detection of cancer cells when cancer cells have a low concentration in a sample. For example, this method can be used to identify patients at risk of developing cancer, who should consider further examination by a physician.

[6] = tested on: mixture of NIH3T3 normal cells and CL1-0 cancer cells with a cell ratio of 100:1; test: Cancer cell diagnosis in a tube; format: cell-based; conditions: NIH3T3:CL1-0 100:1
Source text: as §6

CL1-0 cancer cells [7] = test: Fluorescence of stained cells in eppendorf under LED, recorded by camera; format: cell-based, human; conditions: for Numbers of cells required to distinguish cancer cells and normal cells: Cancer cells (C) CL1-0
Description: as §1

MRC-5 normal cells = test: as above; format: cell-based, human; conditions: for Numbers of cells required to distinguish cancer cells and normal cells: Normal cells (M) MRC-5
Description: as §1

DNA = test: Fluorescence analysis in the presence of a DNA; format: binding; conditions: λex≈430 nm; compound 2 with eleven DNAs, compound 4 with Hum24
Description: Compound 2 was mixed with eleven DNAs and subjected to fluorescence analysis at λex≈430 nm, using a Hitachi F4010 spectrofluorimeter with a 2 nm bandwidth in a 1-cm cell. Fluorescence analysis was also carried out for compound 4 in the presence of Hum24. […] Further, the fluorescence peaks for a complex of compound 2 and a DNA duplex and a complex of compound 2 and a DNA quadruplex were at ˜550 nm and ˜575 nm, respectively.

[8] = 0.1 μM compound solution, electrophoresis
[9] = 0.1 μM compound, 10 μM DNA, 254 nm UV light

What does the source list for C[n+]1ccc(C=Cc2ccc3[nH]c4ccc(C=Cc5cc[n+](C)cc5)cc4c3c2)cc1.[I-].[I-] [Compound 2, 3,6-bis-(2-(1-methylpyridinium-4-yl)-vinyl)-9H-carbazole diiodide]?
Numbers of cells required to distinguish cancer cells and normal cells (HeLa cancer cells; 0.05 μM/1 hr): 2,000 (H); Numbers of cells required to distinguish cancer cells and normal cells (HeLa cancer cells; 0.1 μM/1 hr): 2,000 (H); Numbers of cells required to distinguish cancer cells and normal cells (primary fibroblast; 0.05 μM/1 hr): 20,000 (F); Numbers of cells required to distinguish cancer cells and normal cells (primary fibroblast; 0.1 μM/1 hr): 12,500 (F); concentration of Hum24 quadruplex detected (Hum24; [8]): 0.01 µM; fluorescence band in pre-stained gel (Hum24; [9]): exhibited fluorescence bands; absorption peak [1]: ~435 nm; melting point: > 300 °C; changes in the CD spectra of DNA quadruplexes before and after compound binding (DNA quadruplexes): No appreciable changes; number of stained cells showing fluorescence [2]: 7; number of stained cells showing fluorescence (CL1-0 cancer cells [3]; 1.5 μM Compound 2, 5 minutes, cover slip, LED): ~22; fluorescence brightness in cancer cells versus normal cells (CL1-0 cancer cells [3]; 1.5 μM, 5 minutes, CL1-0 versus NIH3T3, images): brighter fluorescence of Compound 2 in cancer cells than in normal cells; number of stained cells showing fluorescence (NIH3T3 normal cells [4]): 4; concentration of Tet12 quadruplex in which a small amount of linear tetramer is detected (Tet12; [8]): 0.25 µM; fluorescence band in pre-stained gel (Tet12; [9]): only exhibited a third fluorescence band; concentration of Oxy28 quadruplex detected (Oxy28; [8]): 0.1 µM; fluorescence band in pre-stained gel (Oxy28; [9]): exhibited fluorescence bands; concentration of LQ4 quadruplex detected (LQ4; [8]): 0.1 µM; fluorescence band in pre-stained gel (LQ4; [9]): exhibited fluorescence bands; fluorescence observed from stained cells flowing through a tube (NIH3T3 normal cells [5]): only weak fluorescence; fluorescence observed from stained cells flowing through a tube [6]: bright fluorescence; fluorescence emission in eppendorf (CL1-0 cancer cells [7]; 0.5 μM, 1 hour, LED 470 nm): fluorescence emission was clearly observed; Numbers of cells required to distinguish cancer cells and normal cells (CL1-0 cancer cells [7]; 0.1 μM/30 min): 2,000 (C); Numbers of cells required to distinguish cancer cells and normal cells (CL1-0 cancer cells [7]; 0.5 μM/1 hr): 1,000 (C); fluorescence emission in eppendorf (MRC-5 normal cells; 0.5 μM, 1 hour, LED 470 nm): no appreciable fluorescence emission was observed; Numbers of cells required to distinguish cancer cells and normal cells (MRC-5 normal cells; 0.1 μM/30 min): 10,000 (M); Numbers of cells required to distinguish cancer cells and normal cells (MRC-5 normal cells; 0.5 μM/1 hr): 8,000 (M); increase of fluorescence intensity in the presence of a DNA (DNA): two orders of magnitude

— patent US7691624B2, “Cancer cell detecting devices” (Academia Sinica, priority 2003, dated 2010)
